What is called IC50 is the point on the concentration scale where inhibition reaches its midpoint.

Our source for the IC50 and Kd values is US20130079345A1, “[…] ACTIVE DISUBSTITUTED TRIAZINE DERIVATIVES” (BAYER INTELLECTUAL PROPERTY GMBH, priority 2010, published 2013).

One test addresses T1, CDK9 (Homo sapiens, UniProt P50750).
T1 construct: purchased Invitrogen
Nature of the test: Lance Ultra KinaSelect Assay, CDK9. To be noted: read-out: Inhibition (IC50) CDK9. Format: biochemical. Here is the method: This protocol describes how the Lance Ultra KinaSelect Assay was performed to determine half maximal inhibitory concentration (IC50) of compounds of general formula (I) and CDK/Cyclin complexes. The principle behind this enzymatic assay is based upon the phosphorylation of the ULight-Peptide Substrat. It is detected by using a specific EU-labeled anti-phospho peptide antibody. The binding of the Eu-labeled anti-phospho peptide antibody to the phosphorylated U Light labeled peptide gives rise to a FRET-signal. Binding of an inhibitor to the kinase prevents phosphorylation of the ULight-MBP Substrat, resulting in a loss of FRET.
The compounds of general formula (I) summarized in Table 5 were diluted from a 10 mM DMSO stock solution 1:10 in a total volume of 15 μL DMSO. This compound predilution was then serial diluted 1:3 over 8 steps in DMSO and briefly spun down. Each compound solution was now diluted 1:20 in Enzymatic Buffer (HEPES: 50 mM, pH: 7.5; MgCl2: 10 mM; EGTA: 1 mM; DTT: 2 mM; Tween-20: 0.01%), mixed thoroughly and spun down. For every sample, 2 μL of the diluted compound were mixed with 6 μL CDK/Cyclin/Substrat solution and […] in a well of a small volume 384 well plate (Corning Incorporated, Corning, N.Y., USA; order no. 3673). […] For positive controls, in each well 2 μL of DMSO solution (1% final DMSO assay concentration) was mixed with 6 μL CDK/Cyclin/Substrat (appropriate final concentration see Table 3) and 2 μL Tracer ATP solution (appropriate final concentration see Table 3). Positive and negative controls were calculated from at least 8 different sample wells. The 384 well plates were mixed in a Teleshaker plate mixer (Beckman Coulter, Brea, Calif., USA) at 2000 rpm for 40 sec, and incubated for 1 h at room temperature. Before reading, 10 μL detection buffer (Lance Detection Buffer 1×; EDTA: […]; Eu-Anti-P-MBP: see Table 3) was added. The FRET signal was measured at 340 nm excitation, 665 nm and 615 nm emission (for the kinase tracer and LanthaScreen Eu-AB, respectively) with an Envision spectrophotometer (Perkin Elmer, Waltham, Mass., USA) with 50 μs delay and 300 μs integration time. IC50 values were determined from the sigmoidal dose response curves with the software Quattro Workflow (Quattro GmbH, Munich, Germany).

Another test has as its target T2, CDK2/CyclinA (Homo sapiens, UniProt P24941).
T2 construct: purchased Proqinase
The test can be described thus: LanthaScreen Eu Kinase Binding Assay, CDK2. Particulars: tracer 236, read-out: Affinity (Kd) CDK2. In short, it runs like this: (§1)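 TR-FRET competition binding with Alexa Fluor 647 tracer and Eu-anti-GST antibody; e.g. CDK2/Cyclin A 15 nM with tracer 236 60 nM (working solutions). Kinase buffer: HEPES 20 mM pH 8.0, MgCl2 10 mM, DTT 1 mM, Brij-35 0.01%; 8-point 1:3 series, 1 h at room temperature; Kd from sigmoidal dose-response curves.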

The target of another test is T3, CDK9/Cyclin K (Homo sapiens, UniProt P50750).
T3 construct: purchased Invitrogen
The test can be described thus: LanthaScreen Eu Kinase Binding Assay, CDK9/Cyclin K. Particulars: tracer 236, read-out: Affinity (Kd) CDK9/Cyclin K. In short, it runs like this:
as §1

A further test deals with T4, CDK7/CyclinH/Mat1 (Homo sapiens, UniProt P50613).
T4 construct: purchased Carna Biosciences
Nature of the test: LanthaScreen Eu Kinase Binding Assay, CDK7. Particulars: tracer 236, read-out: Affinity (Kd) CDK7. In short, it runs like this:
as §1
On the technique in general: Time-resolved FRET reads energy transfer from a long-lived donor to a nearby acceptor.

For the next test, the target named is T5, CDK9/Cyclin T1 (Homo sapiens, UniProt P50750).
T5 construct: purchased Invitrogen
The test can be described thus: LanthaScreen Eu Kinase Binding Assay, CDK9/Cyclin T1. To be noted: tracer 236, read-out: Affinity (Kd) CDK9/Cyclin T1. The method, boiled down:
as §1

Another test concerns MDAMB468 cells. The test can be described thus: Cell viability assay, MDAMB468 cells. Format: cell-based. Particulars: Homo sapiens, MDA-MB-468, 72 h, Cell Titer Glo. As for the experimental part: (§2) HeLa- or MDAMB468-Cells or MATU ADR, H460, DU145, CACO-2 or B16F10 cells were maintained in RPMI 1640 or McCoy's 5A cell culture medium+glutamine (PAN Biotech GmbH, Aidenbach, Germany; order no. P04-22100; P04-05500) supplemented with 10% fetal calf serum “Gold” (PAA Laboratories GmbH, Pasching, Austria; order no. A15-151) and grown at 37° C., 5% CO2. For the cell viability assay, cells were seeded with a density of 400 (Hela cells, DSMZ Braunschweig order no. ACC57) or 800 (MDAMB468 cells, ATCC order no. HTB-132) per well in 25 μL in 384-well plates (Greiner Bio-One, Frickenhausen, Germany; order no. 781080). After overnight incubation at 37° C./5% CO2, 25 nL or 75 nL compound were added to each sample well by using BIOMEK FXP Laboratory Automation Workstation (Beckman Coulter, USA). Wells with cells and 0.1% or 0.3% DMSO in culture medium were used as positive controls, wells with cells and 10 μM staurosporine in culture medium were used as negative controls. The cells were incubated with the compounds for 72 h at 37° C./5% CO2. For measurement of cell viability […] Cell Titer Glo reagent (Promega, Madison, USA; order no. G7573), 1:2 diluted with cell culture medium, was added to each well. The 384well-plates were placed for 2 min on an orbital microplate shaker and incubated for further 10 min at room temperature to stabilize the luminescence signal. Luminescence was measured by Envision Plate Reader (Perkin Elmer, USA). EC50 values were calculated with the software Excel Fit (IDBS, Guildford, UK) from 3-fold dilution series comprising at least 8 concentrations in duplicates.
On the technique in general: In ATP-based viability assays light output follows the ATP content of the culture.

The next test deals with HeLa cells. The test can be described thus: Cell viability, HeLa cells. The class given is cell-based. Particulars: Homo sapiens. As for the experimental part: as §2
Cultivated tumour cells (NCl-H460, human non-small cell lung carcinoma cells, ATCC HTB-177; DU 145, hormone-independent human prostate carcinoma cells, ATCC HTB-81; HeLa-MaTu, human cervical carcinoma cells, EPO-GmbH, Berlin; HeLa-MaTu-ADR, multidrug-resistant human cervical carcinoma cells, EPO-GmbH, Berlin; HeLa human cervical tumour cells, ATCC CCL-2; Caco-2 human colorectal carcinoma, ATCC HTB-37; B16F10 mouse melanoma cells, ATCC CRL-6475) were plated at a density of 5,000 cells/well (DU145, HeLa-MaTu-ADR), 3,000 cells/well (NCl-H460, HeLa-MaTu, HeLa), 1,500 cells/well (Caco-2), or 1,000 cells/well (B16F10) in a 96-well multititer plate in 200 μL of their respective growth medium supplemented with 10% fetal calf serum. After 24 hours, the cells of one plate (zero-point plate) were stained with crystal violet (see below), while the medium of the other plates was replaced by fresh culture medium (200 μl), to which the test substances were added in various concentrations (0 μM as well as in the range of 0.001 to 10 μM; the final concentration of the solvent dimethyl sulfoxide was 0.5%). The cells were incubated in the presence of test substances for 4 days. Cell proliferation was determined by staining the cells with crystal violet: The cells were fixed by adding 20 μl/measuring point of an 11% glutaric aldehyde solution at room temperature for 15 minutes. After three washing cycles of the fixed cells with water, the plates were dried at room temperature. The cells were stained by adding 100 μl/measuring point of a 0.1% crystal violet solution (pH 3.0). After three washing cycles of the stained cells with water, the plates were dried at room temperature. The dye was dissolved by adding 100 μl/measuring point of a 10% acetic acid solution. The extinction was determined by photometry at a wavelength of 595 nm. The change of cell number, in percent, was calculated by normalization of the measured values to the extinction values of the zero-point plate (equivalent to 0%) and the extinction of the untreated (0 μm) cells (equivalent to 100%). The IC50 values were determined by means of a 4 parameter fit using the company's own software.

The next test addresses T6, CDK2/CycE (Homo sapiens, UniProt P24941).
T6 construct: GST; purchased ProQinase GmbH (Freiburg, Germany); host or cells: insect cells (Sf-9)
The test can be described thus: CDK2/CycE kinase assay (TR-FRET). Format: biochemical. Particulars: ATP 10 μM, values given in μM. An excerpt: CDK2/CycE-inhibitory activity of compounds of the present invention was quantified employing the CDK2/CycE TR-FRET assay as described in the following paragraphs.
Recombinant fusion proteins of glutathione S-transferase (GST) and human CDK2 and of GST and human CycE, expressed in insect cells (Sf-9) and purified by glutathion-sepharose affinity chromatography, were purchased from ProQinase GmbH (Freiburg, Germany). A biotinylated peptide biotin-Ttds-[…] (C-terminus in amide form), which can be purchased from e.g the company JERINI Peptide Technologies (Berlin, Germany), was used as a substrate for the kinase reaction.
For the assay, 50 nl of a 100-fold concentrated solution of the test compound in DMSO was pipetted into a well of a black low-volume 384-well microtiter plate (Greiner Bio-One, Frickenhausen, Germany), 2 μl of a solution of CDK2/CycE in aqueous assay buffer [50 mM Tris/HCl pH 8.0], 10 mM MgCl2, 1.0 mM dithiothreitol, 0.1 mM sodium ortho-vanadate, 0.01% (v/v) Nonidet-P40 (Sigma)] were added. The mixture was incubated at 22° C. for 15 min to allow pre-binding of the test compounds to the enzyme before the start of the kinase reaction. […] The resulting mixture was incubated at 22° C. for 25 minutes. The concentration of CDK2/CycE was adjusted depending on the activity of the enzyme lot and was chosen appropriately for measurements in the linear range of the assay. Typical concentrations were in the range of 130 ng/ml. The reaction was stopped by the addition of 5 μl of a solution of TR-FRET detection reagents (0.2 μM streptavidine-XL and 1 nM anti-RB(pSer807/pSer811)-antibody from BD Pharmingen [#558389] and 1.2 nM LANCE EU-W1024 labeled anti-mouse IgG antibody [Perkin-Elmer, product no. AD0077]) in an aqueous EDTA-solution (100 mM EDTA, 0.2% (w/v) bovine serum albumin in 100 mM HEPES/NaOH, pH 7.0).
The resulting mixture was incubated at 22° C. for one hour to allow the formation of a complex between the phosphorylated biotinylated peptide and the detection reagents. Subsequently, the amount of phosphorylated substrate was evaluated by measuring the resonance energy transfer from the Eu-chelate to the streptavidine-XL. Therefore, the fluorescence emissions at 620 nm and 665 nm after excitation at 350 nm were measured in a high time-resolved fluorometry (HTRF) reader, e.g. a Rubystar (BMG Labtechnologies, Offenburg, Germany) or a Viewlux (Perkin-Elmer). The ratio of the emissions at 665 nm and at […] was taken as a measure for the amounts of phosphorylated substrate. The data were normalised, i.e. enzyme reaction without inhibitor corresponds to 0% inhibition, and all other assay components in the absence of the enzyme correspond to 100% inhibition. IC50 values were calculated by a 4-parameter fit using in-house software.

T3 sequence (P50750 whole entry): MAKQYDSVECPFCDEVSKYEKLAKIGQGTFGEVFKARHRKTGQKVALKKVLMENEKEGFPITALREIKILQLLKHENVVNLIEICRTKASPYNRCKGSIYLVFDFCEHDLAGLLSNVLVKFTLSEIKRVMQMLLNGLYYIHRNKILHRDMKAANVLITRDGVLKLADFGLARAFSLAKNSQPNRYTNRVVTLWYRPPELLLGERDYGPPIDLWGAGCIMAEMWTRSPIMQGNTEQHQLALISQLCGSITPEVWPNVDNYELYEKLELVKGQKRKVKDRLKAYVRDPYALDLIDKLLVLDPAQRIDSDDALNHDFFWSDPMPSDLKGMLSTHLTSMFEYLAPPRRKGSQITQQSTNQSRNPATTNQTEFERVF
T3 sequence (O75909 whole entry partner): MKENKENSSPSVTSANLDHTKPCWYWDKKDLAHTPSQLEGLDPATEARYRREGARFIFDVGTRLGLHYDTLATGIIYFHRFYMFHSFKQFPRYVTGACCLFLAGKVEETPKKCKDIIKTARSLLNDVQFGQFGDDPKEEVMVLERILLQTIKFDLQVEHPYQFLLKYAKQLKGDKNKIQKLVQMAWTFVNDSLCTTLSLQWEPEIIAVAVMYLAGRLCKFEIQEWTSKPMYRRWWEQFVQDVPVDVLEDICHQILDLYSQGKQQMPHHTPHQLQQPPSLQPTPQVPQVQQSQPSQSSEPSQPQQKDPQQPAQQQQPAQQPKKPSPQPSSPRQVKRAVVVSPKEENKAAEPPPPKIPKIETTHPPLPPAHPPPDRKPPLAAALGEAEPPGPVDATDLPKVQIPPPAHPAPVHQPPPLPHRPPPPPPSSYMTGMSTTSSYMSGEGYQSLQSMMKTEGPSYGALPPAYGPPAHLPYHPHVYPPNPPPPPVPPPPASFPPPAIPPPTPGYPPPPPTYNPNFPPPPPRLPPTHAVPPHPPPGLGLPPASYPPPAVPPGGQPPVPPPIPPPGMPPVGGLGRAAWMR
T5 sequence (P50750 whole entry): as the sequence (P50750 whole entry) above
T5 sequence (O60563 whole entry partner): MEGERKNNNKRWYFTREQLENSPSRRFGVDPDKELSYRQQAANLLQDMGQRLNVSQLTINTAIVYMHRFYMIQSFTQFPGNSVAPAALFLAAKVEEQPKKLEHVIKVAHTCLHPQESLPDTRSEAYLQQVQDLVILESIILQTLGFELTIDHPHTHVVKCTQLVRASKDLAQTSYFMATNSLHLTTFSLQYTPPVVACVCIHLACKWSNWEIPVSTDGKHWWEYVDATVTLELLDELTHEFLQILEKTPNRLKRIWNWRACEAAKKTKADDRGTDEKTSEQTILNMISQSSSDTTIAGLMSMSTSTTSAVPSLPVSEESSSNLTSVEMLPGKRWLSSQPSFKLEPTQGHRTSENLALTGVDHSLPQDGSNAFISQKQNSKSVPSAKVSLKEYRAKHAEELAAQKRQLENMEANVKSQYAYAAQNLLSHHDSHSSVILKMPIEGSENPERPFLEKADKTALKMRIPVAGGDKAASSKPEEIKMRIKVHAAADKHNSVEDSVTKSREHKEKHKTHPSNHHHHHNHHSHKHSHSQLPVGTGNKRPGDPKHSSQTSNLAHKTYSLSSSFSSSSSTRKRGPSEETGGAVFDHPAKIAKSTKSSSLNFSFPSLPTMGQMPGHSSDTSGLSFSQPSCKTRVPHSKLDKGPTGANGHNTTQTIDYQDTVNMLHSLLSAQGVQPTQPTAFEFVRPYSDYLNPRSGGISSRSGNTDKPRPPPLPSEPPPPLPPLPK
T1 sequence (P50750 whole entry): as the sequence (P50750 whole entry) above
T4 sequence (P50613 whole entry): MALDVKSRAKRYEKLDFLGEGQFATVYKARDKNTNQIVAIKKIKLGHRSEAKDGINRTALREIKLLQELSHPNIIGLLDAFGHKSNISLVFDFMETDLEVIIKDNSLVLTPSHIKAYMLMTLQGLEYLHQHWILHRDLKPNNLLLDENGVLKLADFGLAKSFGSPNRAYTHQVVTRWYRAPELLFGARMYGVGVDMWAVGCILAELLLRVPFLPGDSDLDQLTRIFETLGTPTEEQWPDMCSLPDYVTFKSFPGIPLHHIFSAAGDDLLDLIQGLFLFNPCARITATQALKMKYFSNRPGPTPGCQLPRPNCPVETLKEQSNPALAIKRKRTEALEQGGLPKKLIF
T4 sequence (P51946 whole entry partner): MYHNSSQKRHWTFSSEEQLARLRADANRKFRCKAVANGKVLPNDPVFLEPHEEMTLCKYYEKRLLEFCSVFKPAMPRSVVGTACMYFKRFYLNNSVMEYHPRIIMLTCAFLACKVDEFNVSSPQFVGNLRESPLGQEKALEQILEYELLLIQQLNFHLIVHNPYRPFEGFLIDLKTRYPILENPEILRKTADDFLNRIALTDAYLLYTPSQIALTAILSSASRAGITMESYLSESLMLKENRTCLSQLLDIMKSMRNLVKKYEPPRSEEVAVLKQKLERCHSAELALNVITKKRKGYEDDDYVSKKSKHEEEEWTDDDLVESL
T4 sequence (P51948 whole entry partner): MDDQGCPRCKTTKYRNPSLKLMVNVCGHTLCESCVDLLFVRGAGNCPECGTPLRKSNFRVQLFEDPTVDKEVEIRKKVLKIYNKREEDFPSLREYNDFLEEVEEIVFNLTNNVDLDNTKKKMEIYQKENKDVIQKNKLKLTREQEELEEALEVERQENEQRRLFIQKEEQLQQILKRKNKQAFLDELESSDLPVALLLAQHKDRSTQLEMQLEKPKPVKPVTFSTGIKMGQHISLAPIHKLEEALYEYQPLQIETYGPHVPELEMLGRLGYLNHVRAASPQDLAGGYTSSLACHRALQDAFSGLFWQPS

Consider `COc1ccccc1-c1ncnc(Nc2cccc(C(N)=O)c2)n1` [Compound E1, 3-[(4-(2-Methoxyphenyl)-1,3,5-triazin-2-yl)amino]benzamide], for which the IC50 at CDK9 was found to be 0.837 µM; with MDAMB468 cells it was 23 µM. Besides, the Kd is 2.16 µM on CDK2/CyclinA, 0.301 µM on CDK9/Cyclin K, > 10 µM at CDK7/CyclinH/Mat1 and 0.136 µM at CDK9/Cyclin T1.

Regarding `COc1ccccc1-c1cc(Nc2cccc(CS(N)(=O)=O)c2)ncn1` [Ref1, C-{3-[6-(2-Methoxy-phenyl)-pyrimidin-4-ylamino]-phenyl}-methanesulfonamide, reference compound], the IC50 in the test with HeLa cells came out at 3.4 µM; on CDK2/CycE it was 2.1 µM.
